Results: the kinase profiling compilation of Christmann-Franck et al. (2016)
Where “and” joins values, the source holds several entries; their conditions need not be identical. Equal values may be shown once.

Tests used:
Assay in all cases: radiometric filter-binding kinase assay, Kinase HotSpot
Settings in all cases: compound 0.5 µM; ATP 10 µM
[1] = biological target: TEK (human) (UniProt Q02763)
[2] = biological target: TAOK1 (human) (UniProt Q7L7X3)
[3] = biological target: EPHB2 (human) (UniProt P29323)
[4] = biological target: CDK3 CCNE1 (human) (UniProt Q00526+P24864)
[5] = biological target: TGFBR1 (human) (UniProt P36897)
[6] = biological target: MUSK (human) (UniProt O15146)
[7] = system: MAP2K6 (human), P52564 [S207E/T211E]
[8] = biological target: STK39 (human) (UniProt Q9UEW8)
[9] = biological target: PHKG2 (human) (UniProt P15735)
[10] = biological target: SRMS (human) (UniProt Q9H3Y6)
[11] = biological target: DYRK3 (human) (UniProt O43781)
[12] = biological target: AKT3 (human) (UniProt Q9Y243)
[13] = biological target: MARK2 (human) (UniProt Q7KZI7)
[14] = biological target: LYN (human) (UniProt P07948)
[15] = biological target: NUAK1 (human) (UniProt O60285)
[16] = biological target: FER (human) (UniProt P16591)
[17] = biological target: PAK3 (human) (UniProt O75914)
[18] = biological target: TYRO3 (human) (UniProt Q06418)
[19] = biological target: CSNK2A2 (human) (UniProt P19784)
[20] = biological target: CDK1 CCNB1 (human) (UniProt P06493+P14635)
[21] = biological target: EPHA8 (human) (UniProt P29322)
[22] = biological target: PLK2 (human) (UniProt Q9NYY3)
[23] = biological target: PAK7 (human) (UniProt Q9P286)
[24] = biological target: CDK2 CCNA2 (human) (UniProt P24941+P20248)
[25] = biological target: CLK4 (human) (UniProt Q9HAZ1)
[26] = biological target: ULK1 (human) (UniProt O75385)
[27] = biological target: PRKG2 (human) (UniProt Q13237)
[28] = biological target: PRKX (human) (UniProt P51817)
[29] = biological target: CSNK1G2 (human) (UniProt P78368)
[30] = biological target: MAPK1 (human) (UniProt P28482)
[31] = biological target: MAP3K5 (human) (UniProt Q99683)
[32] = biological target: STK3 (human) (UniProt Q13188)
[33] = biological target: EPHA7 (human) (UniProt Q15375)
[34] = biological target: IRAK1 (human) (UniProt P51617)
[35] = biological target: RPS6KA2 KD1 KD2 (human) (UniProt Q15349)
[36] = biological target: CDK4 CCND1 (human) (UniProt P24385+P11802)
[37] = biological target: CAMK4 (human) (UniProt Q16566)
[38] = biological target: CSF1R (human) (UniProt P07333)
[39] = biological target: ACVRL1 (human) (UniProt P37023)
[40] = biological target: PBK (human) (UniProt Q96KB5)
[41] = biological target: ROS1 (human) (UniProt P08922)
[42] = biological target: CHEK2 (human) (UniProt O96017)

Sequence of LYN (human) (P07948 whole entry, looked up): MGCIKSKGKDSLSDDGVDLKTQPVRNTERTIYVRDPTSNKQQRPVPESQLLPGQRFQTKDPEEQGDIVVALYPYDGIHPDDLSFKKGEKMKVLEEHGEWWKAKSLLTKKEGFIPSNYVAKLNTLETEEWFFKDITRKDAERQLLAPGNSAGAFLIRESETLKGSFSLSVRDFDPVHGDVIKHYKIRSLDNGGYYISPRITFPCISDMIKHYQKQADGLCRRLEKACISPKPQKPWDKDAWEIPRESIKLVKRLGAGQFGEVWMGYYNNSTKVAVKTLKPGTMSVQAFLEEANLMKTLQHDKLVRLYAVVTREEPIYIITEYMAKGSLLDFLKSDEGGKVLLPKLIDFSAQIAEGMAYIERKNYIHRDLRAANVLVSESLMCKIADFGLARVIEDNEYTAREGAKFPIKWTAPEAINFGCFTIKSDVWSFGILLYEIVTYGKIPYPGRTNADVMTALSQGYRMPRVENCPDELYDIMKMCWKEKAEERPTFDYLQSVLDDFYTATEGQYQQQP
Sequence of MAP3K5 (human) (Q99683 whole entry, looked up): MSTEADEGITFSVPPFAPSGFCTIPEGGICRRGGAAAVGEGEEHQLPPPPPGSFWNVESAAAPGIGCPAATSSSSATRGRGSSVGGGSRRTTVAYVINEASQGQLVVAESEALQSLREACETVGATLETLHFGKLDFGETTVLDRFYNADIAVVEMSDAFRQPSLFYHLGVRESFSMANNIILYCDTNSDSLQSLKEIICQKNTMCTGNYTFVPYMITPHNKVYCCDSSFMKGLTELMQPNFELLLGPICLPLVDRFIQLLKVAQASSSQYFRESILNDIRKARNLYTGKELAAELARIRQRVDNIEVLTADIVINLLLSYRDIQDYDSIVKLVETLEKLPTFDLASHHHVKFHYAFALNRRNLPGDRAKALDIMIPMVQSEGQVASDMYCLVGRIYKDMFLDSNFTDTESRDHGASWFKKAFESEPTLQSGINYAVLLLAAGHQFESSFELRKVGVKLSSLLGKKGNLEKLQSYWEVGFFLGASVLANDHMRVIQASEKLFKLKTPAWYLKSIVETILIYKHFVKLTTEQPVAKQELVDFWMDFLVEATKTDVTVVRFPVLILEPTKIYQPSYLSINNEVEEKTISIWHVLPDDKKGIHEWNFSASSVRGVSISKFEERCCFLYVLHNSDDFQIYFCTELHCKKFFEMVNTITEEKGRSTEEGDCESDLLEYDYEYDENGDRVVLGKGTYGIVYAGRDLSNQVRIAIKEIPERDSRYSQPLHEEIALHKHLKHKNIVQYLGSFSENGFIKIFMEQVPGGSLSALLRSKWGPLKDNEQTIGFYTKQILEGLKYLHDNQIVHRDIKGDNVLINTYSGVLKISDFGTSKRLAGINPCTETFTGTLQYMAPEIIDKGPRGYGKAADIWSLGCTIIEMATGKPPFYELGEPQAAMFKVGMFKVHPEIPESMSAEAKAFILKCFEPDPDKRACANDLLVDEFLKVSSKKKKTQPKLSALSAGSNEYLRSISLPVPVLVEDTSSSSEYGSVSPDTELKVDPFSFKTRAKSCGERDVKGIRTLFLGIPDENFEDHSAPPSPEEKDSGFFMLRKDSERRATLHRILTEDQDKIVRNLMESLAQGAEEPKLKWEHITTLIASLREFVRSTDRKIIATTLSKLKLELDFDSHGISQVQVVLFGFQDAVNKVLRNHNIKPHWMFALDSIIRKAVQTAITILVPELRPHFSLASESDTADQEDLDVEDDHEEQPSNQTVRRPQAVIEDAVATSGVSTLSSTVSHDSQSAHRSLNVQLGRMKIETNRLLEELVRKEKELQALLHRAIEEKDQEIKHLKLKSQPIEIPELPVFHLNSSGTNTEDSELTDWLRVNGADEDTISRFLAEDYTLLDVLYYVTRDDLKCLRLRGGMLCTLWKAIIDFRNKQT
Sequence of IRAK1 (human) (P51617 whole entry, looked up): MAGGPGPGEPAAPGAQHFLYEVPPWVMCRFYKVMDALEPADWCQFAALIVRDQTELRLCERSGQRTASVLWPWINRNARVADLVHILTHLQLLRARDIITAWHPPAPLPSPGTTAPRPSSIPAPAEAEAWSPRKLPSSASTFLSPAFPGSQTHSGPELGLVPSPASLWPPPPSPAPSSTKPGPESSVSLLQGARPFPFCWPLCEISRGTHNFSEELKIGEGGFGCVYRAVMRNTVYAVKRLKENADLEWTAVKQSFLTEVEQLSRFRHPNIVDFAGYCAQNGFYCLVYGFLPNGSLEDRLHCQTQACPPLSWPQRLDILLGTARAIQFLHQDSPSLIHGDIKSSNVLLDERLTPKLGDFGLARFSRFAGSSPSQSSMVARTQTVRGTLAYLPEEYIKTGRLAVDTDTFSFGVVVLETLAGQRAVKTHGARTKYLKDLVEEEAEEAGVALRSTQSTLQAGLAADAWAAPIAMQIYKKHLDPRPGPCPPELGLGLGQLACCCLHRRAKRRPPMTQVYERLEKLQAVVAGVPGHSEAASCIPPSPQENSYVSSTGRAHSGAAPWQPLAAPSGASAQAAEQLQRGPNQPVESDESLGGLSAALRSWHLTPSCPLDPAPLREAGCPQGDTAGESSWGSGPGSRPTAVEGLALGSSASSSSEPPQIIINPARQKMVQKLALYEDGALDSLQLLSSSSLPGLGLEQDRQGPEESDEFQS
Sequence of CSF1R (human) (P07333 whole entry, looked up): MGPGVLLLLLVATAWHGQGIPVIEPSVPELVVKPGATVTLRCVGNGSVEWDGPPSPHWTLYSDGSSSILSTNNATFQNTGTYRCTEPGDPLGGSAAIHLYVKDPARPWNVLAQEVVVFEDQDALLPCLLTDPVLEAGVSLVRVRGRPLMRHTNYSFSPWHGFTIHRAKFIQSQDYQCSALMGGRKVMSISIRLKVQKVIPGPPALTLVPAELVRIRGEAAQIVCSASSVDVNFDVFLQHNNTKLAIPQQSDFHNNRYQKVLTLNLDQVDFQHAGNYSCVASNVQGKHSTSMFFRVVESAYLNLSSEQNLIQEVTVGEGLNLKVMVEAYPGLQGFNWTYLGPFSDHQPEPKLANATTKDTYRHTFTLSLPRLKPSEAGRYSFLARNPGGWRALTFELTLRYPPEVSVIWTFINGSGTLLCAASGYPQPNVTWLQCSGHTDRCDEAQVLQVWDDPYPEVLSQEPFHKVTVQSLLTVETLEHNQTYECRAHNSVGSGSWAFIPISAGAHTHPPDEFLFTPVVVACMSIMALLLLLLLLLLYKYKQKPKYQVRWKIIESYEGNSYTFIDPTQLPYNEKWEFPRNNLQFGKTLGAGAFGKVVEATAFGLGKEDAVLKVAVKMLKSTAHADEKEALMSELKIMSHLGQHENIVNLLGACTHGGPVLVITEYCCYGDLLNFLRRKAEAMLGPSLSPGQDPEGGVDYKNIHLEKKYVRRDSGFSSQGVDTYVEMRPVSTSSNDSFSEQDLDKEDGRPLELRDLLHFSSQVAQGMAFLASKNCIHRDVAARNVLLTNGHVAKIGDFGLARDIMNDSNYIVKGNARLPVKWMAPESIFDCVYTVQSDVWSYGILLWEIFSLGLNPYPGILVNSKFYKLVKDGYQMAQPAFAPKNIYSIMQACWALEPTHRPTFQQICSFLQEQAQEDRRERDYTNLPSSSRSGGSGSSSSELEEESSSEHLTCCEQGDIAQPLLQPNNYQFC
Sequence of EPHB2 (human) (P29323 whole entry, looked up): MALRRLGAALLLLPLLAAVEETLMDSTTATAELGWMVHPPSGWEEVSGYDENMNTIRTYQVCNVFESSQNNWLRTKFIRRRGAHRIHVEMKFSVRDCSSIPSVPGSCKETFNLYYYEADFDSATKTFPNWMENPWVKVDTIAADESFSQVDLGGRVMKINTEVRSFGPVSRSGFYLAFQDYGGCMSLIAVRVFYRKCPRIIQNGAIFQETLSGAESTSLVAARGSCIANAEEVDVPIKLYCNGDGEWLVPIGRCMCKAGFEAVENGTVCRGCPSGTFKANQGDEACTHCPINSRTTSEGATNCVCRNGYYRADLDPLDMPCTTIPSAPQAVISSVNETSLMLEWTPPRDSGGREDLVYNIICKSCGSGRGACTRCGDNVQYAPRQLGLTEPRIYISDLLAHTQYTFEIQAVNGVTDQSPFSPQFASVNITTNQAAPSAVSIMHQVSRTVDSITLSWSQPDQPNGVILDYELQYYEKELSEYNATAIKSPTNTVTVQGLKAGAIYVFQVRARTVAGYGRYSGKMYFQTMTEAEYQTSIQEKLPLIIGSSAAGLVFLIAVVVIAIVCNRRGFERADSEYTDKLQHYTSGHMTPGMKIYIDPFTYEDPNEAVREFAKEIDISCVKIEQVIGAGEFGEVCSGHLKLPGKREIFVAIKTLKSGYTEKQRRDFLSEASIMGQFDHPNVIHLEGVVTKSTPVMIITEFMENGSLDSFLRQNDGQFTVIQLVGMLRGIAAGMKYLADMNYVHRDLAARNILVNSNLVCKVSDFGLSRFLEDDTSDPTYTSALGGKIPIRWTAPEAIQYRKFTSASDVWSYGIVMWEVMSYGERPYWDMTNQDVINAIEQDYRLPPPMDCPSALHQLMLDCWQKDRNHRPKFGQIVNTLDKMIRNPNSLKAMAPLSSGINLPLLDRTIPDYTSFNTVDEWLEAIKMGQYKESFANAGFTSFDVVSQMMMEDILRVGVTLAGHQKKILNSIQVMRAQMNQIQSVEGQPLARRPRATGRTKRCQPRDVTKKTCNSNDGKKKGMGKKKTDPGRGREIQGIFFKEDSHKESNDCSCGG
Sequence of AKT3 (human) (Q9Y243 whole entry, looked up): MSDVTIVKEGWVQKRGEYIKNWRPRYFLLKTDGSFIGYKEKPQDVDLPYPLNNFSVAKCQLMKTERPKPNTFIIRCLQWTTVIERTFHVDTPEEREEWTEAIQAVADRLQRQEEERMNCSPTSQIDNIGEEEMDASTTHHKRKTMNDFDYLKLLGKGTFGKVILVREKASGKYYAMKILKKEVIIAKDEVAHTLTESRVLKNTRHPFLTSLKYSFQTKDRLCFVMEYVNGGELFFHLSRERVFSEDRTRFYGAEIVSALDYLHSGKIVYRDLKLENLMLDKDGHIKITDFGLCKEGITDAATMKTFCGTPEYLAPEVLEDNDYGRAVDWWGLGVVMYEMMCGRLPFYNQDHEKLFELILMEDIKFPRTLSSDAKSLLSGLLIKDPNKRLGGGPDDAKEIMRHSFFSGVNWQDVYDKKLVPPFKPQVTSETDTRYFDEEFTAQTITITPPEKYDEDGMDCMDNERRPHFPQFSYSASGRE

SMILES: CN(C)c1ccc(/C=C2\C(=O)Nc3ccccc32)cc1
- residual activity [1]: 102%
- residual activity [2]: 94.7%
- residual activity [3]: 86.5%
- residual activity [4]: 98.7%
- residual activity [5]: 96.7%
- residual activity [6]: 96.4%
- residual activity [7]: 94.7%
- residual activity [8]: 96.6%
- residual activity [9]: 95.9%
- residual activity [10]: 97.9%
- residual activity [11]: 99.5%
- residual activity [12]: 103%
- residual activity [13]: 105%
- residual activity [14]: 108% and 97.8%
- residual activity [15]: 80.4%
- residual activity [16]: 94.5%
- residual activity [17]: 99%
- residual activity [18]: 92.7%
- residual activity [19]: 98.6%
- residual activity [20]: 94.1%
- residual activity [21]: 103%
- residual activity [22]: 111%
- residual activity [23]: 101%
- residual activity [24]: 102%
- residual activity [25]: 94.1%
- residual activity [26]: 91.9%
- residual activity [27]: 105%
- residual activity [28]: 104%
- residual activity [29]: 96.7%
- residual activity [30]: 96.4%
- residual activity [31]: 99.4%
- residual activity [32]: 100%
- residual activity [33]: 99.1%
- residual activity [34]: 102%
- residual activity [35]: 89.1%
- residual activity [36]: 97.7%
- residual activity [37]: 97.8%
- residual activity [38]: 77.5%
- residual activity [39]: 104%
- residual activity [40]: 101%
- residual activity [41]: 94.9%
- residual activity [42]: 91.6%

SMILES: CCCCc1c(-c2ccc(OC)cc2)[nH]c2nccnc12
- residual activity [1]: 96.3%
- residual activity [2]: 87%
- residual activity [3]: 88.8%
- residual activity [4]: 83.8%
- residual activity [5]: 95%
- residual activity [6]: 95.4%
- residual activity [7]: 96%
- residual activity [8]: 77.8%
- residual activity [9]: 106%
- residual activity [10]: 96.7%
- residual activity [11]: 96.1%
- residual activity [12]: 102%
- residual activity [13]: 83.1%
- residual activity [14]: 108% and 85.5%
- residual activity [15]: 25%
- residual activity [16]: 59.8%
- residual activity [17]: 106%
- residual activity [18]: 98.6%
- residual activity [19]: 94.1%
- residual activity [20]: 47.7%
- residual activity [21]: 103%
- residual activity [22]: 94.9%
- residual activity [23]: 88.1%
- residual activity [24]: 36.3%
- residual activity [25]: 73.2%
- residual activity [26]: 87.9%
- residual activity [27]: 93.9%
- residual activity [28]: 102%
- residual activity [29]: 92.5%
- residual activity [30]: 103%
- residual activity [31]: 95%
- residual activity [32]: 87%
- residual activity [33]: 98%
- residual activity [34]: 64.3%
- residual activity [35]: 93%
- residual activity [36]: 60.4%
- residual activity [37]: 97.6%
- residual activity [38]: 37.7%
- residual activity [39]: 77%
- residual activity [40]: 80.6%
- residual activity [41]: 37.5%
- residual activity [42]: 72.8%

SMILES: CS(=O)(=O)CCNCc1ccc(-c2ccc3ncnc(Nc4ccc(OCc5cccc(F)c5)c(Cl)c4)c3c2)o1
- residual activity [1]: 93.2%
- residual activity [2]: 98.8%
- residual activity [3]: 101%
- residual activity [4]: 94.6%
- residual activity [5]: 101%
- residual activity [6]: 96.5%
- residual activity [7]: 95.4%
- residual activity [8]: 100%
- residual activity [9]: 99.5%
- residual activity [10]: 97.9%
- residual activity [11]: 90.2%
- residual activity [12]: 83.5%
- residual activity [13]: 137%
- residual activity [14]: 103% and 104%
- residual activity [15]: 108%
- residual activity [16]: 94.6%
- residual activity [17]: 105%
- residual activity [18]: 98.9%
- residual activity [19]: 101%
- residual activity [20]: 100%
- residual activity [21]: 99.5%
- residual activity [22]: 103%
- residual activity [23]: 98.5%
- residual activity [24]: 94.5%
- residual activity [25]: 115%
- residual activity [26]: 95.4%
- residual activity [27]: 107%
- residual activity [28]: 111%
- residual activity [29]: 99.5%
- residual activity [30]: 102%
- residual activity [31]: 105%
- residual activity [32]: 93.7%
- residual activity [33]: 95.6%
- residual activity [34]: 98.8%
- residual activity [35]: 84%
- residual activity [36]: 94.8%
- residual activity [37]: 107%
- residual activity [38]: 106%
- residual activity [39]: 105%
- residual activity [40]: 105%
- residual activity [41]: 107%
- residual activity [42]: 96.8%
